Where two headings read alike, the source gives them in different places.
System: PMA-differentiated THP-1 cells
Experiment: IL-1β production in PMA-differentiated THP-1 cells stimulated with gramicidin (hTHP-1 assay containing 2% fetal bovine serum; Procedures 1 and 2)
Format: cell-based, human
Conditions: 2% fetal bovine serum
Outline: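 PMA-primed (20 ng/ml, 16-18 h) THP-1 cells in RPMI with 2% FBS, 50,000 cells/well, were preincubated 1 h with compound (0.0017-100 μM final, 0.37% DMSO), then stimulated 2 h with 5 μM gramicidin. Supernatant IL-1β measured by HTRF.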

[1] = Homo sapiens, THP-1, Table B2, class symbols, read-out: hTHP-1 IC50
[2] = Homo sapiens, THP-1, Table B3, hTHP-1 assay, class symbols, read-out: IC50
[3] = Table B1, class symbols, read-out: Average IC50 of compounds in hTHP-1 assay: hTHP-1 IC50
[4] = Homo sapiens, THP-1, Table B2, numeric bounds, read-out: hTHP-1 IC50
[5] = Homo sapiens, THP-1, Table B1, class symbols, read-out: Average IC50 of compounds in hTHP-1 assay: hTHP-1 IC50
[6] = Table B2, class symbols, read-out: hTHP-1 IC50

C[C@@H]1CCc2c1nc1c(c2NC(=O)N=S(N)(=O)c2ccn(C)n2)CCC1 (single isomer, unassigned) [Compound 639b, (R) or (S)-1-Methyl-N′-(((R)-3-methyl-1,2,3,5,6,7-hexahydrodicyclopenta [b,e]pyridin-8-yl)carbamoyl)-1H-pyrazole-3-sulfonimidamide] gave an IC50 [1] of 200 to 1000 nM.
CC1(C)CCc2c1nc1c(c2NC(=O)N=S(N)(=O)c2cc(CO)n(CCO)n2)CCC1 (stereo not shown) [Example 626, N′-((3,3-dimethyl-1,2,3,5,6,7-hexahydrodicyclopenta[b,e]pyridin-8-yl)carbamoyl)-1-(2-hydroxyethyl)-5-(hydroxymethyl)-1H-pyrazole-3-sulfonimidamide] gave an IC50 [2] of 200 to 1000 nM.
With CC1CCc2c1nc1c(c2NC(=O)N=S(N)(=O)c2cc(C(C)(C)O)cs2)CCC1 (single isomer, unassigned) [Compound 141aa, (R,R) or (R,S)-4-(2-hydroxypropan-2-yl)-N′-((3-methyl-1,2,3,5,6,7-hexahy-drodicyclopenta[b,e]pyridin-8-yl)carbamoyl)thiophene-2-sulfonimidamide] the IC50 [3] was 8 to 40 nM.
With CC(C)(O)c1ccc(S(N)(=O)=NC(=O)Nc2c3c(nc4c2CCC4)CCC3)cc1 (single isomer, unassigned) [Compound 633a, (S) or (R)-N′-((1,2,3,5,6,7-hexahydrodicyclopenta [b,e]pyridin-8-yl)carbamoyl)-4-(2-hydroxypropan-2-yl)benzene-sulfonimidamide] the IC50 [4] was over 30000 nM.
With CCc1c(C(F)(F)F)nc2c(c1NC(=O)N=S(N)(=O)c1cc(C(C)(C)O)cs1)CCC2 (stereo not shown) [Compound 609, N′-((3-ethyl-2-(trifluoromethyl)-6,7-dihydro-5H-cyclopenta[b]pyridin-4-yl)carbamoyl)-4-(2-hydroxypropan-2-yl)thiophene-2-sulfonimidamide] the IC50 [1] was 1000 to 5000 nM.
CC1(C)CCc2c1nc1c(c2NC(=O)N=S(N)(=O)c2cnn(C(F)F)c2)CCC1 (single isomer, unassigned) [Compound 637b, (S) or (R)-1-(Difluoromethyl)-N′-((3,3-dimethyl-1,2,3,5,6,7-hexahydrodicyclopenta [b,e]pyridin-8-yl)carbamoyl)-1H-pyrazole-4-sulfonimidamide] gave an IC50 [1] of 1000 to 5000 nM and an IC50 [4] of over 30000 nM.
Compound CCn1cc(F)c(S(N)(=O)=NC(=O)Nc2c(C)c(CC(F)(F)F)nc3c2CCC3)n1 (stereo not shown) [Example 619, 1-Ethyl-4-fluoro-N′-((3-methyl-2-(2,2,2-trifluoroethyl)-6,7-dihydro-5H-cyclopenta[b]pyridin-4-yl)carbamoyl)-1H-pyrazole-3-sulfonimidamide] has an IC50 [2] of 1000 to 5000 nM.
Work on Cc1c(C(F)(F)F)nc2c(c1NC(=O)N=[S@](N)(=O)c1cnc(C(C)(C)O)s1)CC[C@@H]2C [Compound 608a] yielded an IC50 [1] of 200 to 1000 nM.
With CC1(C)CCc2c1nc1c(c2NC(=O)N=[S@](N)(=O)c2cc([C@](C)(O)CO)cs2)CCC1 [Example 652, (S)-4-((S)-1,2-dihydroxypropan-2-yl)-N′-((3,3-dimethyl-1,2,3,5,6,7-hexahydrodicyclopenta[b,e]pyridin-8-yl)carbamoyl) thiophene-2-sulfonimidamide] the IC50 [2] was 5000 to 30000 nM.
CC1(C)CCc2c1nc1c(c2NC(=O)N=S(N)(=O)c2cnc(C(C)(O)CO)s2)CCC1 (single isomer, unassigned) [Compound 201a, (R, R) or (S, R) or (R, S) or (S, S)-2-(1,2-Dihydroxypropan-2-yl)-N′-((3,3-dimethyl-1,2,3,5,6,7-hexahydrodicyclopenta [b,e]pyridin-8-yl)carbamoyl) thiazole-5-sulfonimidamide] gave an IC50 [5] of 40 to 200 nM and an IC50 [6] of 8 to 40 nM.
Compound CC(C)(O)c1nc(CCO)c(S(N)(=O)=NC(=O)Nc2c3c(nc4c2CCC4)CCC3)s1 (stereo not shown) [Compound 118, N-((1,2,3,5,6,7-hexahydrodicyclopenta[b,e]pyridin-8-yl)carbamoyl)-4-(2-hydroxyethyl)-2-(2-hydroxypropan-2-yl)thiazole-5-sulfonimidamide] has an IC50 [5] of 1000 to 5000 nM.
CC(C)(O)c1ncc(S(N)(=O)=NC(=O)Nc2c3c(nc4c2CCC4(C)C)CCC3)s1 (stereo not shown) [Compound 153, N′-((3,3-dimethyl-1,2,3,5,6,7-hexahydrodicyclopenta[b,e]pyridin-8-yl)carbamoyl)-2-(2-hydroxypropan-2-yl)thiazole-5-sulfonimidamide] was tested, and the IC50 [5] was 40 to 200 nM.
CC1CCc2c1nc1c(c2NC(=O)N=S(N)(=O)c2cnc(C(C)(C)O)s2)CCC1 (single isomer, unassigned) [Compound 162aa, (S,S) or (S,R)-2-(2-hydroxypropan-2-yl)-N′-((3-methyl-1,2,3,5,6,7-hexahydrodicyclo-penta[b,e]pyridin-8-yl)carbamoyl)thiazole-5-sulfonimidamide] gave an IC50 [3] of 5000 to 30000 nM.
Compound Cc1nc2c(c(NC(=O)N=[S@@](N)(=O)c3cnc(C(C)(C)O)s3)c1C1CC1)CCC2 [Example 581, (R)-N′-((3-cyclopropyl-2-methyl-6,7-dihydro-5H-cyclopenta[b]pyridin-4-yl)carbamoyl)-2-(2-hydroxypropan-2-yl)thiazole-5-sulfonimidamide] has an IC50 (Homo sapiens, THP-1, Table B3, hTHP-1 assay, numeric values, read-out: IC50) of over 30000 nM.
Compound CC(C)(O)c1ncc(S(N)(=O)=NC(=O)Nc2c3c(nc4c2CCC4F)CCC3)s1 (single isomer, unassigned) [Compound 183a, (R,R) or (R,S)-N′-((3-fluoro-1,2,3,5,6,7-hexahydrodicyclo-penta[b,e]pyridin-8-yl)carbamoyl)-2-(2-hydroxypropan-2-yl)thiazole-5-sulfonimidamide] has an IC50 [3] of 1000 to 5000 nM.
CC(C)(O)c1ncc(S(N)(=O)=NC(=O)Nc2cc(-c3ccccc3)nc3c2CCC3)s1 (single isomer, unassigned) [Compound 142b, (S) or (R)-2-(2-hydroxy-propan-2-yl)-N′-((2-phenyl-6,7-dihydro-5H-cyclopenta[b]pyridin-4-yl)carbamoyl)thiazole-5-sulfonimidamide] showed an IC50 (Table B1, numeric bounds, read-out: Average IC50 of compounds in hTHP-1 assay: hTHP-1 IC50) of over 30000 nM.
C[C@@H]1CCc2c1nc1c(c2NC(=O)N=S(N)(=O)c2nn(C(F)F)cc2F)CCC1 (single isomer, unassigned) [Example 679, (R) or (S)-1-(difluoromethyl)-4-fluoro-N′-(((R)-3-methyl-1,2,3,5,6,7-hexahydrodicyclopenta[b,e]pyridin-8-yl)carbamoyl)-1H-pyrazole-3-sulfonimidamide] was tested, and the IC50 (Table B3, hTHP-1 assay, class symbols, read-out: IC50) was 40 to 200 nM.
Cc1cc(C2CC2)nc(NC(=O)N=S(N)(=O)c2ncc(C(C)(C)O)s2)n1 (single isomer, unassigned) [Compound 185b, (S) or (R)-N′-((4-cyclopropyl-6-methylpyrimidin-2-yl)carbamoyl)-5-(2-hydroxypropan-2-yl)thiazole-2-sulfonimidamide] showed an IC50 (Homo sapiens, THP-1, Table B1, numeric bounds, read-out: Average IC50 of compounds in hTHP-1 assay: hTHP-1 IC50) of over 30000 nM and an IC50 [4] of over 30000 nM.
Work on CC(C)(O)c1cc(Br)c(S(N)(=O)=NC(=O)Nc2c3c(nc4c2CCC4)CCC3)s1 (single isomer, unassigned) [Compound 690b, (R) or (S)-3-Bromo-N′-((1,2,3,5,6,7-hexahydrodicyclopenta [b,e]pyridin-8-yl)carbamoyl)-5-(2-hydroxypropan-2-yl)thiophene-2-sulfonimidamide] yielded an IC50 [1] of 1000 to 5000 nM.
Compound CC(C)(O)c1csc(S(N)(=O)=NC(=O)Nc2c3c(nc(C4CC4)c2C2CC2)CCC3)c1 (single isomer, unassigned) [Compound 670a, (S) or (R)-N′-((2,3-dicyclopropyl-6,7-dihydro-5H-cyclopenta[b]pyridin-4-yl)carbamoyl)-4-(2-hydroxypropan-2-yl)thiophene-2-sulfonimidamide] has an IC50 [6] of 5000 to 30000 nM.
CC(C)n1cc(Cl)c(S(N)(=O)=NC(=O)Nc2c3c(nc4c2CCC4)CCC3)n1 (stereo not shown) [Compound 694, 4-Chloro-N′-((1,2,3,5,6,7-hexahydrodicyclopenta[b,e]pyridin-8-yl)carbamoyl)-1-isopropyl-1H-pyrazole-3-sulfonimidamide] was tested, and the IC50 [1] was 1000 to 5000 nM.
Work on CC(C)(O)c1cc(Cl)c(S(N)(=O)=NC(=O)Nc2c3c(nc4c2CCC4)CCC3)s1 (single isomer, unassigned) [Compound 691b, (R) or (S)-3-Chloro-N′-((1,2,3,5,6,7-hexahydrodicyclopenta [b,e]pyridin-8-yl)carbamoyl)-5-(2-hydroxypropan-2-yl)thiophene-2-sulfonimidamide] yielded an IC50 [6] of 1000 to 5000 nM.
CCn1cc(F)c(S(N)(=O)=NC(=O)Nc2c3c(nc(C)c2-c2ccccc2)CCC3)n1 (single isomer, unassigned) [Example 770, (S) or (R)-1-ethyl-4-fluoro-N′-((2-methyl-3-phenyl-6,7-dihydro-5H-cyclopenta[b]pyridin-4-yl)carbamoyl)-1H-pyrazole-3-sulfonimidamide] was tested, and the IC50 (Table B4, class symbols, read-out: hTHP-1 IC50) was 40 to 200 nM.
For CC1(C)Cc2nc3c(c(NC(=O)N=S(N)(=O)c4cnc(C(C)(C)O)s4)c2C1)CCC3 (single isomer, unassigned) [Compound 147b, (R) or (S)-N′-((2,2-dimethyl-1,2,3,5,6,7-hexahydro-dicyclopenta[b,e]pyridin-8-yl)carbamoyl)-2-(2-hydroxypropan-2-yl)thiazole-5-sulfonimidamide], the IC50 [5] was 1000 to 5000 nM.
CC(C)c1c(C2CC2)nc2c(c1NC(=O)N=S(N)(=O)c1cc(C(C)(C)O)cs1)CCC2 (stereo not shown) [Compound 667, N′-((2-cyclopropyl-3-isopropyl-6,7-dihydro-5H-cyclopenta[b]pyridin-4-yl)carbamoyl)-4-(2-hydroxypropan-2-yl)thiophene-2-sulfonimidamide] gave an IC50 [1] of 200 to 1000 nM.
